Data taken from patent US20240307382A1, “MODULATORS OF THE INTEGRATED STRESS PATHWAY” (Calico Life Sciences LLC, priority 2017, published 2024).

System: HEK293T cells carrying the ATF4 luciferase reporter
Experiment: ATF4-Luc assay (ATF4 luciferase reporter, tunicamycin-treated cells)
Type: cell-based
Settings: Homo sapiens, HEK-293T, 1 μg/mL tunicamycin, 7 hours
In short: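 A stable HEK293T reporter line was made by placing the full-length human ATF4 5′-UTR ahead of a firefly luciferase sequence without its start methionine, delivered by retroviral transduction and puromycin selection. Cells were seeded at 30,000 per well in polylysine-coated 384-well plates, exposed next day to 1 μg/mL tunicamycin plus compound for 7 hours, and luminescence was read with One Glo.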

Row | SMILES | EC50 [nM]
1 | O=C(COc1ccc(Cl)c(F)c1)NC12CCC(NC(=O)c3ccc4c(c3)OC(F)(F)O4)(CC1)NC2=O [Compound 1047, N-{4-[2-(4-chloro-3-fluorophenoxy)acetamido]-3-oxo-2-azabicyclo[2.2.2]octan-1-yl}-2,2-difluoro-2H-1,3-benzodioxole-5-carboxamide] | > 2000
2 | O=C(COc1ccc(Cl)c(Cl)c1)NC12CCC(NC(=O)c3cc(C(F)F)no3)(CC1)NC2=O [Compound 1048, N-{4-[2-(3,4-dichlorophenoxy)acetamido]-3-oxo-2-azabicyclo[2.2.2]octan-1-yl}-3-(difluoromethyl)-1,2-oxazole-5-carboxamide] | > 2000
3 | Cc1cc(C(=O)NC23CCC(NC(=O)COc4ccc(Cl)c(Cl)c4)(CC2)C(=O)N3)on1 [Compound 1049, N-{4-[2-(3,4-dichlorophenoxy)acetamido]-3-oxo-2-azabicyclo[2.2.2]octan-1-yl}-3-methyl-1,2-oxazole-5-carboxamide] | > 2000
4 | O=C(COc1ccc(Cl)c(F)c1)NC12CCC(NC(=O)c3cc(C(F)F)no3)(CC1)NC2=O [Compound 1050, N-{4-[2-(4-chloro-3-fluorophenoxy)acetamido]-3-oxo-2-azabicyclo[2.2.2]octan-1-yl}-3-(difluoromethyl)-1,2-oxazole-5-carboxamide] | > 2000
5 | Cc1cc(C(=O)NC23CCC(NC(=O)COc4ccc(Cl)c(F)c4)(CC2)C(=O)N3)on1 [Compound 1051, N-{4-[2-(4-chloro-3-fluorophenoxy)acetamido]-3-oxo-2-azabicyclo[2.2.2]octan-1-yl}-3-methyl-1,2-oxazole-5-carboxamide] | > 2000
6 | O=C(COc1ccc(Cl)c(Cl)c1)NC12CCC(NC(=O)c3coc(C(F)F)n3)(CC1)C[C@@H]2O [Compound 1052, N-{(3S)-4-[2-(3,4-dichlorophenoxy)acetamido]-3-hydroxybicyclo[2.2.2]octan-1-yl}-2-(difluoromethyl)-1,3-oxazole-4-carboxamide] | < 50
7 | O=C(NC12CCC(NC(=O)c3cnc(-c4ccccc4)o3)(CC1)[C@@H](O)C2)c1cnc(-c2ccccc2)o1 [Compound 1053, N,N′-[(2S)-2-hydroxybicyclo[2.2.2]octane-1,4-diyl]bis(2-phenyl-1,3-oxazole-5-carboxamide)] | < 50
8 | O=C(NC12CCC(NC(=O)c3cnc(-c4ccccc4)o3)(CC1)C2)c1cnc(-c2ccccc2)o1 [Compound 1055, N,N′-(bicyclo[2.2.1]heptane-1,4-diyl)bis(2-phenyl-1,3-oxazole-5-carboxamide)] | 50 to 250
9 | Cc1cnc(C(=O)NC23CC(NC(=O)c4cnc(-c5ccccc5)o4)(C2)C3)cn1 [Compound 1056, 5-methyl-N-{3-[(2-phenyl-1,3-oxazole-5-carbonyl)amino]bicyclo[1.1.1]pentan-1-yl}pyrazine-2-carboxamide] | 250 to 1000
10 | O=C(NC12CC(NC(=O)c3cnc(-c4ccccc4)o3)(C1)C2)c1cnc(-c2ccccc2)o1 [Compound 1057, N,N′-(bicyclo[1.1.1]pentane-1,3-diyl)bis(2-phenyl-1,3-oxazole-5-carboxamide)] | < 50
11 | O=C(NC12CC(NC(=O)c3cnc(-c4ccccc4)o3)(C1)C2)c1cnc(C(F)F)cn1 [Compound 1058, 5-(difluoromethyl)-N-{3-[(2-phenyl-1,3-oxazole-5-carbonyl)amino]bicyclo[1.1.1]pentan-1-yl}pyrazine-2-carboxamide] | 50 to 250
12 | O=C(CO)Nc1cc(F)c(F)cc1C(=O)NC12CC(NC(=O)COc3ccc(Cl)c(F)c3)(C1)C2 [Compound 1059, N-{3-[2-(4-chloro-3-fluorophenoxy)acetamido]bicyclo[1.1.1]pentan-1-yl}-4,5-difluoro-2-(2-hydroxyacetamido)benzamide] | 50 to 250
13 | O=C(COc1ccc(Cl)c(F)c1)NC12CC(NC(=O)c3cc(F)c(F)cc3NCCO)(C1)C2 [Compound 1060, N-{3-[2-(4-chloro-3-fluorophenoxy)acetamido]bicyclo[1.1.1]pentan-1-yl}-4,5-difluoro-2-[(2-hydroxyethyl)amino]benzamide] | 250 to 1000
14 | COCC(=O)Nc1cc(F)c(F)cc1C(=O)NC12CC(NC(=O)COc3ccc(Cl)c(F)c3)(C1)C2 [Compound 1061, N-{3-[2-(4-chloro-3-fluorophenoxy)acetamido]bicyclo[1.1.1]pentan-1-yl}-4,5-difluoro-2-(2-methoxyacetamido)benzamide] | 250 to 1000
15 | Cc1nc(C(=O)NC23CCC(NC(=O)COc4ccc(Cl)c(F)c4)(CC2)[C@H](O)C3)n[nH]1 [Compound 1062, N-{(3R)-4-[2-(4-chloro-3-fluorophenoxy)acetamido]-3-hydroxybicyclo[2.2.2]octan-1-yl}-5-methyl-1H-1,2,4-triazole-3-carboxamide] | 250 to 1000
16 | Cc1csc(C(=O)NC23CCC(NC(=O)COc4ccc(F)c(Cl)c4)(CC2)[C@@H](O)C3)n1 [Compound 1063, N-{(3S)-4-[2-(3-chloro-4-fluorophenoxy)acetamido]-3-hydroxybicyclo[2.2.2]octan-1-yl}-4-methyl-1,3-thiazole-2-carboxamide] | 250 to 1000
17 | Cc1csc(C(=O)NC23CCC(NC(=O)COc4ccc(Cl)cc4)(CC2)[C@@H](O)C3)n1 [Compound 1064, N-{(3S)-4-[2-(4-chlorophenoxy)acetamido]-3-hydroxybicyclo[2.2.2]octan-1-yl}-4-methyl-1,3-thiazole-2-carboxamide] | 250 to 1000
18 | Cc1csc(C(=O)NC23CCC(NC(=O)COc4ccc(Cl)c(F)c4)(CC2)[C@@H](O)C3)n1 [Compound 1065, N-{(3S)-4-[2-(4-chloro-3-fluorophenoxy)acetamido]-3-hydroxybicyclo[2.2.2]octan-1-yl}-4-methyl-1,3-thiazole-2-carboxamide] | < 50
19 | O=C(COc1ccc(Cl)c(F)c1)NC12CCC(NC(=O)c3ccn(-c4ccc(Cl)c(Cl)c4)n3)(CC1)[C@@H](O)C2 [Compound 1066, N-{(2S)-4-[2-(4-chloro-3-fluorophenoxy)acetamido]-2-hydroxybicyclo[2.2.2]octan-1-yl}-1-(3,4-dichlorophenyl)-1H-pyrazole-3-carboxamide] | < 50
20 | Cc1nc(C(=O)NC23CC(NC(=O)COc4ccc(Cl)c(F)c4)(C2)C3)n(C)n1 [Compound 1067, N-{3-[2-(4-chloro-3-fluorophenoxy)acetamido]bicyclo[1.1.1]pentan-1-yl}-1,3-dimethyl-1H-1,2,4-triazole-5-carboxamide] | 50 to 250
21 | O=C(COc1ccc(Cl)c(F)c1)NC12CCC(NC(=O)c3n[nH]c(-c4ccc(Cl)cc4)n3)(CC1)C[C@@H]2O [Compound 1068, N-{(3S)-4-[2-(4-chloro-3-fluorophenoxy)acetamido]-3-hydroxybicyclo[2.2.2]octan-1-yl}-5-(4-chlorophenyl)-1H-1,2,4-triazole-3-carboxamide] | > 2000
22 | COc1ncc(OCC(=O)NC23CCC(NC(=O)c4cc(C(F)F)no4)(CC2)C[C@@H]3O)cn1 [Compound 1069, 3-(difluoromethyl)-N-[(3S)-3-hydroxy-4-{2-[(2-methoxypyrimidin-5-yl)oxy]acetamido}bicyclo[2.2.2]octan-1-yl]-1,2-oxazole-5-carboxamide] | 1000 to 2000
23 | O=C(COc1cccc(F)c1)NC12CCC(NC(=O)c3cc(C(F)F)no3)(CC1)C[C@@H]2O [Compound 1070, 3-(difluoromethyl)-N-{(3S)-4-[2-(3-fluorophenoxy)acetamido]-3-hydroxybicyclo[2.2.2]octan-1-yl}-1,2-oxazole-5-carboxamide] | 50 to 250
24 | O=C(COc1ccccn1)NC12CCC(NC(=O)c3cc(C(F)F)no3)(CC1)C[C@@H]2O [Compound 1071, 3-(difluoromethyl)-N-[(3S)-3-hydroxy-4-{2-[(pyridin-2-yl)oxy]acetamido}bicyclo[2.2.2]octan-1-yl]-1,2-oxazole-5-carboxamide] | > 2000
25 | O=C(COc1cccc(Cl)c1)NC12CCC(NC(=O)c3cc(C(F)F)no3)(CC1)C[C@@H]2O [Compound 1072, N-{(3S)-4-[2-(3-chlorophenoxy)acetamido]-3-hydroxybicyclo[2.2.2]octan-1-yl}-3-(difluoromethyl)-1,2-oxazole-5-carboxamide] | 50 to 250
26 | COc1ncc(C(=O)NC23CCC(NC(=O)COc4ccc(Cl)c(F)c4)(CC2)[C@@H](O)C3)cn1 [Compound 1073, N-{(3S)-4-[2-(4-chloro-3-fluorophenoxy)acetamido]-3-hydroxybicyclo[2.2.2]octan-1-yl}-2-methoxypyrimidine-5-carboxamide] | 50 to 250
27 | COc1ncc(C(=O)NC23CCC(NC(=O)COc4ccc(C(F)(F)F)c(F)c4)(CC2)[C@@H](O)C3)cn1 [Compound 1074, N-[(3S)-4-{2-[3-fluoro-4-(trifluoromethyl)phenoxy]acetamido}-3-hydroxybicyclo[2.2.2]octan-1-yl]-2-methoxypyrimidine-5-carboxamide] | 50 to 250
28 | O=C(COc1ccc(Cl)c(F)c1)NC12CCC(NC(=O)c3nc4cc(F)c(F)cc4o3)(CC1)C[C@@H]2O [Compound 1075, N-{(3S)-4-[2-(4-chloro-3-fluorophenoxy)acetamido]-3-hydroxybicyclo[2.2.2]octan-1-yl}-5,6-difluoro-1,3-benzoxazole-2-carboxamide] | < 50
29 | O=C(COc1ccc(C(F)(F)F)nc1)NC12CCC(NC(=O)c3cc4cc(Cl)ccc4o3)(CC1)C[C@@H]2O [Compound 1076, 5-chloro-N-[(3S)-3-hydroxy-4-(2-{[6-(trifluoromethyl)pyridin-3-yl]oxy}acetamido)bicyclo[2.2.2]octan-1-yl]-1-benzofuran-2-carboxamide] | 50 to 250
30 | O=C(COc1ccc(Cl)c(F)c1)NC12CCC(NC(=O)c3cc4cc(Cl)ccc4o3)(CC1)C[C@@H]2O [Compound 1077, 5-chloro-N-{(3S)-4-[2-(4-chloro-3-fluorophenoxy)acetamido]-3-hydroxybicyclo[2.2.2]octan-1-yl}-1-benzofuran-2-carboxamide] | < 50
